Target: T1, FL-AsphyA (Avena sativa, UniProt P06593)
T1 construct: Full-length phytochrome genes of AsPHYA; made in house; host or cells: Pichia pastoris GS115
T1 sequence (P06593 1-1129): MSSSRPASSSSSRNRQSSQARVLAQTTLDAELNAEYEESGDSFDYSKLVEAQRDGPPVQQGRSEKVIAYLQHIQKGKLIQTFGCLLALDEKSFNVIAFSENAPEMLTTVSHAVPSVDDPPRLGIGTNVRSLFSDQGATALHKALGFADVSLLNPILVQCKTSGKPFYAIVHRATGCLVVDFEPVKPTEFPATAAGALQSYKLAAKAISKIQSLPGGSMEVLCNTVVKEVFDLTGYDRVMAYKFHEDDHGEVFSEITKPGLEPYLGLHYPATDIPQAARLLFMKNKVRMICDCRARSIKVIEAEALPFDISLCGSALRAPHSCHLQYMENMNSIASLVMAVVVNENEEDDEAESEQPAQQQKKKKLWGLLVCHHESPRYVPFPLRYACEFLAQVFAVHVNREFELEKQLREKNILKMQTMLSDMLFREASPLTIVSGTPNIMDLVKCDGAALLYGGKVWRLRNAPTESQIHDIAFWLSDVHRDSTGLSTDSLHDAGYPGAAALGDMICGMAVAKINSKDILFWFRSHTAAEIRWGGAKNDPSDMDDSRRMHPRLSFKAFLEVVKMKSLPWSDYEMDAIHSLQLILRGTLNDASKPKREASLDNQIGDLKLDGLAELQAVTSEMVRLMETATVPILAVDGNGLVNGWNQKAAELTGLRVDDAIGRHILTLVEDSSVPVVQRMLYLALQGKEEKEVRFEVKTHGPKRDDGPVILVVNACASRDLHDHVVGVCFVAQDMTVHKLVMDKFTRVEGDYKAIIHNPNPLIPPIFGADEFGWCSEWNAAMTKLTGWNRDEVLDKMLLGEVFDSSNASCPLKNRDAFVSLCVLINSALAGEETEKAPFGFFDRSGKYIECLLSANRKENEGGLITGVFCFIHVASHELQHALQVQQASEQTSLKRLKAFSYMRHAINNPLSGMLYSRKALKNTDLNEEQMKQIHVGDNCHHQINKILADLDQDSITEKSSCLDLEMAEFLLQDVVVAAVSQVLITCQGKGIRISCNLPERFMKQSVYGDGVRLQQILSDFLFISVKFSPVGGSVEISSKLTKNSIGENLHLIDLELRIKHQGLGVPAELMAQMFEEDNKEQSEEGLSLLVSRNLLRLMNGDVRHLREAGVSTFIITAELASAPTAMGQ
Assay: Autophosphorylation and kinase activity assays of 8-azido-ATP-labelled AsphyA
Type: biochemical
Settings: Pfr form of FL-AsphyA, 8-azido-ATP labeling buffer
Protocol: For autophosphorylation assays, reaction mixtures (20 μl) contained kinase buffer (25 mM Tris-HCl, pH 7.8, 0.2 mM EDTA, 4 mM DTT and 5 mM MgCl2) and purified recombinant phytochromes (0.5–1.0 μg) in either Pr or Pfr forms. Phytochrome samples were irradiated with red or far-red light for 15 min before the start of the reaction. Because histone H1 is known to stimulate phytochrome autophosphorylation activity, the same amount of histone H1 (0.5–1.0 μg) was added to the phytochrome samples in the indicated experiments. The conditions for kinase assays were similar to those of phytochrome autophosphorylation experiments, except for addition of a substrate (0.5–1.0 μg). Reactions were started by adding 150 μM ATP containing 10 μCi of (γ-^32P) ATP and incubated at 30 °C for 1 h. […] To verify the proteins loaded, Coomassie blue protein staining and zinc-fluorescence assay were performed before drying. For quantification of the phosphorylation, dried gels were exposed to Fuji imaging plates, and the relative signals of phyA autophosphorylation and PIF3 phosphorylation by phyA were quantitated with a Typhoon FLA 7000 phosphor-imager (GE Healthcare).
Supplementary Figure 11. […] 8-azido-ATP labeled proteins were then detected using avidin-HRP. […] The band intensities were quantified using ImageJ software, and the percentages of 8-azido-ATP labeling were normalized to the 66-610 protein signals. […]

“8-N3-ATP-biotin-long chain-hydrazone [8-azido-ATP]” was tested, and the “autophosphorylation of 8-azido-ATP-labelled AsphyA” value was “little autophosphorylation” and the “kinase activity (PIF3) of 8-azido-ATP-labelled AsphyA” value was “significantly reduced kinase activity”.
